Source: patent US20250177473A1, “PEPTIDE REGULATORS OF METABOLISM” (Metabico, Inc., priority 2022, published 2025)
Residues, ends and D or L forms follow the SMILES beside them.

Columns and labels:
[1] = target: T1, NPSR1 (the receptor of neuropeptide S) (Homo sapiens, UniProt Q6W5P4); experiment: Full Functional GPCR Panel (Eurofins Cerep): NPSR1, intracellular Ca2+; format: cell-based; settings: EPSI 100 μM; 10 nM NPS; HEK-293 cells expressing NPSR1
T1 construct: host or cells: HEK-293
T1 sequence (Q6W5P4 1-371): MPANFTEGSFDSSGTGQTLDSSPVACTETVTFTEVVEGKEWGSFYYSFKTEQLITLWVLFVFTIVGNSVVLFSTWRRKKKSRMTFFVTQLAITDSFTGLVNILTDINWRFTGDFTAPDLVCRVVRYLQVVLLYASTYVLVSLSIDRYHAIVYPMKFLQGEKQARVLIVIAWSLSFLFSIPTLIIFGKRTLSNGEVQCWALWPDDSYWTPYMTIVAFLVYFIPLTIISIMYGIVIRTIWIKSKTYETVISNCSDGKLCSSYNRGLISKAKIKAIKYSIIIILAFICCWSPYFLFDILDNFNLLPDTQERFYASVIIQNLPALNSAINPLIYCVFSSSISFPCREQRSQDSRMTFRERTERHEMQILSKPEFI
Method: (§1) EPSI peptide was tested in the dose of 100 μM in 326 functional assays (163 GPCRs both in agonist and antagonist modes) combined in Full Functional GPCR Panel (item P343) provided by Eurofins Cerep SA.
(§2) Each cell-based assay was performed by application of the peptide to cell lines expressing individual receptors with subsequent measuring Ca2+, IP1, or cAMP depending on the receptor type. In the case of antagonist mode assays, the peptide was applied together with the control agonist.
(§3) Cellular agonist effect was calculated as a % of control response to a known reference agonist for each target and cellular antagonist effect was calculated as a % inhibition of control reference agonist response for each target.
EPSI peptide induced activating effect provided by 10 nM of control agonist NPS (neuropeptide S) by 56.4±8.5% in HEK-293 cells expressing NPSR1 (the receptor of neuropeptide S). Activation of NPSR1 was measured by the changes in intracellular Ca2+ levels.

GPR109A receptor = target: T2, GPR109A receptor (Homo sapiens, UniProt Q8TDS4); experiment: Full Functional GPCR Panel: GPR109A antagonist mode; format: cell-based; settings: EPSI 100 μM; 300 nM nicotinic acid; RBL cells expressing GPR109A
T2 construct: host or cells: RBL
Method: as §1, §2, §3

FFAR2 (GPR43) receptor = target: T3, FFAR2 (GPR43) receptor (Homo sapiens, UniProt O15552); experiment: FFAR2 cell-based functional antagonist assay, intracellular Ca2+; settings: EPSI 100 μM; 1 mM sodium acetate; HEK-293 cells expressing FFAR2
T3 construct: host or cells: HEK-293
T3 sequence (O15552 1-330): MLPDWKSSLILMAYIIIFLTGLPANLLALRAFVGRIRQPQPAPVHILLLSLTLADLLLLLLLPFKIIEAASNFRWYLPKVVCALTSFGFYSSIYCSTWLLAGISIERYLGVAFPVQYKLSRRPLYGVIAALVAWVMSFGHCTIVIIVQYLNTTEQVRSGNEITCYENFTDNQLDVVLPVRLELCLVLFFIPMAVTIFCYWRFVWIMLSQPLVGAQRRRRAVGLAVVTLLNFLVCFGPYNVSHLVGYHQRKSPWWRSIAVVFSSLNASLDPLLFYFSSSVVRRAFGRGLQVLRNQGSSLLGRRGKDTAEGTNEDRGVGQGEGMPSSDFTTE
Method: as §1, §2, §3
EPSI peptide acted as antagonist of FFAR2 (GPR43) receptor reducing by 28.0±1.5% the signal induced by 1 mM of sodium acetate in HEK-293 cells expressing FFAR2.
EPSI peptide was tested in the doses of 0.03, 0.16, 4, and 20 μM in FFAR2 cell-based functional antagonistic assay provided by Eurofins Cerep SA. The assay was performed in HEK-293 cell line expressing FFAR2 and stimulated with 1 mM sodium acetate (control reference agonist) for FFAR2 signaling induction. Fluorimetric measurement of intracellular Ca2+ levels was performed after the peptide application. Cellular antagonist effect was calculated as a % inhibition of control reference agonist response.

LPAR3 = target: T4, LPAR3 (Homo sapiens, UniProt Q9UBY5); experiment: Full Functional GPCR Panel: LPAR3; format: cell-based; settings: EPSI 100 μM; 30 nM Lysophosphatidic acid; CHO cells expressing LPAR3
T4 construct: host or cells: CHO
T4 sequence (Q9UBY5 1-353): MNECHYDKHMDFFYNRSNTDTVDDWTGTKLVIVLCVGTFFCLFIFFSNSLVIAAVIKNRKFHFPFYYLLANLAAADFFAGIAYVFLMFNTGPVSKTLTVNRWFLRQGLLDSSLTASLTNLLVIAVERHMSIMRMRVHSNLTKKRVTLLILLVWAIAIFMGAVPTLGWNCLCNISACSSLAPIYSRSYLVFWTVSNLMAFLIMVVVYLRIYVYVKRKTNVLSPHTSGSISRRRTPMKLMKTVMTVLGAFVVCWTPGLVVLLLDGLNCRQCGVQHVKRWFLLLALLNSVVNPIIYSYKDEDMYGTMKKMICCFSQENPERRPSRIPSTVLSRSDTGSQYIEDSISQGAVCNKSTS
Method: as §1, §2, §3
EPSI peptide induced activating effect provided by 30 nM of control agonist Lysophosphatidic acid by 29.2±3.0% in CHO cells expressing LPAR3.

M2 muscarinic receptor = target: T5, M2 muscarinic receptor (Homo sapiens, UniProt P08172); experiment: Full Functional GPCR Panel: M2 muscarinic receptor, cAMP; format: cell-based; settings: EPSI 100 μM; vs 3 μM acetylcholine; CHO cells expressing M2
T5 construct: host or cells: CHO
T5 sequence (P08172 1-466): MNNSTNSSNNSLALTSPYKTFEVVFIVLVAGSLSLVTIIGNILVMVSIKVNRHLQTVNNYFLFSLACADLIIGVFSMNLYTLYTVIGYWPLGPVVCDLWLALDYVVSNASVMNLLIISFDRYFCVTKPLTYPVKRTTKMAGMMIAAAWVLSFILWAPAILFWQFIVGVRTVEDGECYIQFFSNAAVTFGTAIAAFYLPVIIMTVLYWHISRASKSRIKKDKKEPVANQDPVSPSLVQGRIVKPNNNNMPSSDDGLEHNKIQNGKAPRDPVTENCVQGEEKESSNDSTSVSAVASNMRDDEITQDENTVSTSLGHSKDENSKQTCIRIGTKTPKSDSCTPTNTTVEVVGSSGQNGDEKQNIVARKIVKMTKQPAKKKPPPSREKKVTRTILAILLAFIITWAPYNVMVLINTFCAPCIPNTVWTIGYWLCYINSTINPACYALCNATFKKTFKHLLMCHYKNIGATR
Method: as §1, §2, §3

[2] = test system: C57BL/6 mice on a high-fat diet; experiment: Tolerability observations in HFD mice study; format: in vivo, mouse; settings: EPSI 5 mg/kg i.n. and i.p.
Method: Groups of 10 animals were formed from the existing groups from Stage 2, with similar mean body weight (Table 6). The animals' bodyweight was monitored three times a week, water, and feed consumption—weekly. After the last treatment, the animals were euthanized for necropsy and their blood collected. The internal organs were examined for the presence of macro damage and weighed. The adipose tissue surrounding the epididymis was evaluated as a marker of obesity in animals. For histological examination, samples of adipose tissue and liver tissue were fixed in 10% formalin solution for further histological analysis.
During necropsy, the body's external state, internal surfaces, the cranial cavity, chest, abdominal and pelvic cavities with organs and tissues located in them, the neck with organs and tissues, the skeleton, and the musculoskeletal system were examined. The organs and tissues were fixed in 10% formalin. Liver and adipose tissue samples were weighed and stored in 10% formalin for subsequent histological analysis.

[3] = test system: pStat3 (Y705) in the hypothalamus; experiment: pStat3 (Y705) immunohistochemistry of mouse hypothalamus after administration; format: in vivo, C57Bl/6J mice; settings: 60 minutes after administration; EPSI 10 mg/kg intranasally; leptin 5 mg/mL intraperitoneally; 24 h food deprivation
Method: Fifteen C57Bl/6J 15 weeks old mice (5 animals per group) were used in the study.
We performed food deprivation 24 hours prior to the administration of the compounds. The animals of the experimental group were administered with 10 mg/kg EPSI intranasally (EPSI was dissolved in 10 μL of saline per mouse, 5 μL in each nostril). Positive control animals were administered with 5 mg/mL leptin intraperitoneally (leptin was dissolved in 100 μL of saline per mouse). Negative control mice were administered with 100 μL of saline intraperitoneally. The mice were euthanized 60 minutes after the administration of the compounds.
Narcosis was performed using the combination of Zoletil (20 mg/kg) and Rometar (5 mg/kg). Next, transcardial perfusion was performed with saline to wash out the blood, then with a 10% formalin solution. After complete fixation, the animal bodies were decapitated, the brain was extracted and additionally fixed in 10% formalin, after which it was washed in PBS 3 times for 30 minutes and placed overnight in a 30% sucrose solution in PBS until the tissue was completely impregnated.
The brain samples were placed in a mold, and poured with the freezing medium. […]
The images were received using an inverted microscope Nikon Eclipse Ni. The number of positive cells was calculated using ImageJ software. […]

[4] = test system: male mice of CBA and C57Bl/6 hybrids, food deprived 12 hours; experiment: Home cage feed consumption test; format: in vivo, mouse; settings: leptin 1 mg/kg i.p. before testing
Method: The work was performed on 30 mature male mice of the first generation of CBA and C57Bl/6 hybrids weighing 22-24 grams. The animals were divided into treatment groups (Table 1).
Solutions for intranasal (i.n.) administration were prepared by dissolving the peptide in saline. The volume of i.n. administration: 1 μl per 1 g of animal weight. Solutions for intraperitoneal (i.p.) administration were prepared by dissolving the drug in saline. The volume of […]. administration: 10 μl per 1 g of animal weight. Solutions were prepared directly on the day of the experiment before the experiment.
All manipulations with animals were performed at the end of the adaptation period of 14 days.
Day 1—Adaptation of animals to the home cage food consumption test. In the evening, animals were deprived of food for 12 hours (overnight).
Day 2—Administration of the test substances and the food consumption test in a home cage for 1.5 hours. Before and after the test, the animals were weighed.
This test was performed to assess the appetite of animals after the treatment with tested compounds. The test was performed in 2 days. […]
Statistical data processing was carried out using nonparametric criteria (Mann-Whitney) for samples with a distribution other than normal. Normally distributed data were analyzed with one-way ANOVA (only Treatment factor) or repeated measures ANOVA (dynamics) with post hoc Fisher test. […]

T2 sequence (Q8TDS4 whole entry): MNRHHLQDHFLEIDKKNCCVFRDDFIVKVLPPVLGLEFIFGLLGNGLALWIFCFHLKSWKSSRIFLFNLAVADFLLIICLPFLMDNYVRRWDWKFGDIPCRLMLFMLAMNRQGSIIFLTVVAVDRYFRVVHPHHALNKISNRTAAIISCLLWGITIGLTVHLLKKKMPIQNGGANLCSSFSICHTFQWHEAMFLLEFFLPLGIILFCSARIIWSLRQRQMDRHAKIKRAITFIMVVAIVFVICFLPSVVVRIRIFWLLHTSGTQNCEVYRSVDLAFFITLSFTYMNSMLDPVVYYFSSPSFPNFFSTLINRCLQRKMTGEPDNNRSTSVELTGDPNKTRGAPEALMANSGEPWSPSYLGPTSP

| Compound | induction of activating effect of control agonist NPS (intracellular Ca2+) [1] | reduction of signal evoked by nicotinic acid (antagonist mode) (GPR109A receptor) | reduction of signal induced by sodium acetate (antagonist mode) (FFAR2 (GPR43) receptor) | induction of activating effect of control agonist Lysophosphatidic acid (LPAR3) | reduction of cAMP levels, efficiency compared to control agonist (M2 muscarinic receptor) | local irritating effect (nasal mucosa; abdominal wall skin and subcutaneous tissue) [2] | toxic effects throughout the experiment ([2]; up to 28 days) | pStat3-positive cells in hypothalamic sections (ratio to total nuclei) [3] | amount of food consumed over 90 minutes vs control [4] |
| --- | --- | --- | --- | --- | --- | --- | --- | --- | --- |
| CC[C@H](C)[C@H](NC(=O)[C@H](CO)NC(=O)[C@@H]1CCCN1C(=O)[C@@H](N)CCC(=O)O)C(=O)O [EPSI] (H-EPSI-OH) | 56.4±8.5% | 37.1±2.1% | 28.0±1.5% | 29.2±3.0% | 26.8±6.8% | no local irritating effect | no toxic effects | – | – |
| leptin | – | – | – | – | – | – | – | 3% | did not differ |
